Results reported in ChEMBL document CHEMBL2390898, “Optimizing the control of apoptosis by amide/triazole isosteric substitution in a constrained peptoid” (Eur J Med Chem, 2013).
The source made the active and inactive calls. No cut-off for these calls is given here.

Key:
[1] = biological target: T1, Apoptotic protease-activating factor 1 (Homo sapiens) (UniProt O14727); assay: Binding affinity to Apaf1 (unknown origin) assessed as inhibition of procaspase-9 activity
T1 sequence (whole entry): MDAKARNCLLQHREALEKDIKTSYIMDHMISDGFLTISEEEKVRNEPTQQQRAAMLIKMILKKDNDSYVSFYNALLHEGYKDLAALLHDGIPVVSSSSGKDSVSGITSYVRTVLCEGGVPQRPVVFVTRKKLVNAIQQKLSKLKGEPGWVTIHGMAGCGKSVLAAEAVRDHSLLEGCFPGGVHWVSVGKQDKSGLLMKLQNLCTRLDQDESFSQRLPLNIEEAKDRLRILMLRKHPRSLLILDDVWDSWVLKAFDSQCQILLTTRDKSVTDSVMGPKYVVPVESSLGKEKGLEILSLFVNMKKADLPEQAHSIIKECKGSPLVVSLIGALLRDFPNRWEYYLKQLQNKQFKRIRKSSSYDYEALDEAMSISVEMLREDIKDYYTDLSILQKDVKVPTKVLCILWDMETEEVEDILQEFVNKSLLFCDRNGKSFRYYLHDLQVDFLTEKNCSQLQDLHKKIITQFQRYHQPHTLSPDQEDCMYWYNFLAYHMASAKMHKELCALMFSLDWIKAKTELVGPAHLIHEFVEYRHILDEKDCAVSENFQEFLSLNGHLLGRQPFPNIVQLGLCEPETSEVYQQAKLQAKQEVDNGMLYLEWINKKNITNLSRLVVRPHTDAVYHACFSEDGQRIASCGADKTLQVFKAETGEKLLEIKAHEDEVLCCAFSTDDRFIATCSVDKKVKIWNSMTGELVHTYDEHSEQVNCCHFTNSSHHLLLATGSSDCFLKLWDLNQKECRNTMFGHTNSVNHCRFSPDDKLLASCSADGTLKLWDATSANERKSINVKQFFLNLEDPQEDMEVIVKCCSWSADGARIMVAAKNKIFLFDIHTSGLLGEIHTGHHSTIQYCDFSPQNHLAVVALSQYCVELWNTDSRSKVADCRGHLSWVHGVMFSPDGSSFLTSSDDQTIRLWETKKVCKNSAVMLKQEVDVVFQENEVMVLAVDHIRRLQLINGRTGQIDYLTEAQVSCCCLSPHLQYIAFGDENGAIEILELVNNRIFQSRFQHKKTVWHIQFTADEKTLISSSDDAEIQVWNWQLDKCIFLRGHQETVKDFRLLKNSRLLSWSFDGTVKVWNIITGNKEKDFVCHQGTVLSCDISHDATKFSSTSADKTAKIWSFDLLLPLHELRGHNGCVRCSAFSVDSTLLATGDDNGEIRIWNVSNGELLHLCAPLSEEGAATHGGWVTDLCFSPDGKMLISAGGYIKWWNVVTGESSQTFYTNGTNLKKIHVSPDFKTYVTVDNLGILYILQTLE

Caspase-9 (Homo sapiens) = biological target: T2, Caspase-9 (Homo sapiens) (UniProt P55211); assay: Inhibition of recombinant caspase-9 (unknown origin)
T2 sequence (whole entry): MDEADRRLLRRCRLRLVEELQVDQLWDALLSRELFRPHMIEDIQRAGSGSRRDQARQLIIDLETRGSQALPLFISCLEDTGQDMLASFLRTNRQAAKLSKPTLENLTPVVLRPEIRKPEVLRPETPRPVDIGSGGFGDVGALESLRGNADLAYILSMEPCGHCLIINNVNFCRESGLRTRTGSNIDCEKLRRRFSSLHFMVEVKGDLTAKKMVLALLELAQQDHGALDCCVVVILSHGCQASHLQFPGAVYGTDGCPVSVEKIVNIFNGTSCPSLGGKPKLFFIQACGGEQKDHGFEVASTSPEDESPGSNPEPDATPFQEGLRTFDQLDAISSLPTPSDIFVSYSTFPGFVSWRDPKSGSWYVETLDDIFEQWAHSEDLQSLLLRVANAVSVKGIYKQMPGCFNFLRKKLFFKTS

inhibition [1]	inhibition (Caspase-9 (Homo sapiens))	Compound
Active	inactive	O=C1CC(C(=O)NCCc2ccc(Cl)cc2Cl)(c2cnn(CCc3ccc(Cl)cc3Cl)n2)N1CCC(c1ccccc1)c1ccccc1 (racemic)
Active	inactive	NC(=O)CN(CCc1ccc(Cl)cc1Cl)C(=O)CC1C(=O)N(CCc2ccc(Cl)cc2Cl)CC(=O)N1CCC(c1ccccc1)c1ccccc1 (racemic)
Active	inactive	O=C1C(c2cnnn2CCc2ccc(Cl)cc2Cl)N(CCC(c2ccccc2)c2ccccc2)C(=O)CN1CCc1ccc(Cl)cc1Cl (racemic)
Active	inactive	O=C1C(c2cn(CCc3ccc(Cl)cc3Cl)nn2)N(CCC(c2ccccc2)c2ccccc2)C(=O)CN1CCc1ccc(Cl)cc1Cl (stereo not drawn)
